From US10912741B2, “Prevention of liver cancer with safranal-based formulations” (United Arab Emirates University, priority 2019, dated 2021)

Legend:
[1] = system: IL-8 secretion by HepG2 cells; test: IL-8 ELISA of supernatant of safranal-treated cells; type: cell-based, human; settings: as early as 6 hrs
Experimental: HepG2, were cultured in RPMI 1640 medium (HyClone, USA) and 1% of 100 U/ml penicillin and 100 ug/ml streptomycin (Sigma, USA) supplemented with 10% fetal bovine serum (Sigma, USA) at 37° C. in a humidified 5% CO2 atmosphere. Cells were sub-cultured each 4-6 days using trypsin 0.25% (Hyclone, USA).
In 100 mm plates, HepG2 cells were seeded at a density of 2×10^4 in complete growth medium. Cells were allowed to attach for 24 hours, after which complete growth medium was replaced by serum-free medium. Cells were treated with safranal at a concentration of 1 mM (20 mM stock). Plates were incubated for 6, 12, 24, and 48 hours in a humidified 5% CO2 atmosphere at 37° C. At indicated times, 1 mL of cell supernatant was obtained from each plate and was stored at −80° C. for further analysis by ELISA. After which whole cell lysates were prepared. Bicinchoninic acid (BCA) assay (Sigma-Aldrich, USA) was used to determine concentration of protein. Thirty μg of protein were loaded onto 10% SDS polyacrylamide electrophoresis gels. […]
Supernatant of safranal-treated cells were used to investigate the effect of safranal on IL-8 secretion level. […] Absorbance was recorded at 450 nm with background subtraction at 570 nm using a microplate reader (Biotek, Winooski, Vt., USA).

myeloperoxidase (MPO) = test: Myeloperoxidase activity in liver homogenate, DEN/2-AAF hepatocarcinogenesis model; type: in vivo, albino Wistar rats; settings: mean±SEM, 8 rats
Experimental: The experimental hepatocarcinogenesis model was developed according to a protocol by […] et al. that was adapted for our purposes. To initiate and promote hepatocarcinogenesis, diethylnitrosamine (DEN) and 2-acetylaminofluorene (2-AAF) were used, respectively. For hepatocarcinogenesis initiation in this model, a single DEN dose (200 mg/kg b.wt.) dissolved in saline was injected intraperitoneally. After initiation, all rats underwent one period of 5-days fasting, as mitotic proliferative stimuli. To promote hepatocarcinogenesis, 2-acetylaminofluorene (2-AAF) was introduced in the form of six daily intragastric doses (30 mg/kg in 1% Tween 80); two weeks after DEN treatment. […] at doses of 25 mg/kg by weight (b.wt.) and 50 mg/kg b.wt, was administrated orally to rats. These doses have been reported to suppress chemically-induced oxidative damage in rats. A total of 40 adult male albino Wistar rats were randomly divided into […] (n=8) and were subjected to different treatments. Group 1 (control) was orally administered distilled water (5 ml/kg b.wt.) throughout the experimental duration and were injected with a single dose of saline. Group 2 ([…] only) was subjected to a safranal dose (50 mg/kg b.wt.) through oral administration for the duration of the experimental period. Hepatocarcinogenesis was induced by DEN and promoted by 2-AAF, as reported previously, in group 3 (HCC). […] Glutathione (GSH) content was determined by analyzing liver homogenates, according to the method of Van Dooran et al. The assay depends on measuring yellow 5-thiol-2-nitrobenzoate absorbance at 412 nm. Glutathione-S-transferase (GST) activity was determined using the method of Habig et al. GST catalyzes the conjugation of GSH thiol group with 1-Chloro-2,4-dinitrobenzene (CDNB), which can be measured by determining the increase in absorbance at 340 nm. […] CAT decomposes hydrogen peroxide (H2O2) to oxygen and water; therefore, the activity of CAT was evaluated according to by the exponential decomposition of H2O2 at 240 nm. […] UV-160-Shimadzu recording spectrophotometer was used to record absorbances. […]

CC1=C(C=O)C(C)(C)CC=C1 [Safranal, 2,6,6-trimethylcyclohexa-1,3-diene-1-carbaldehyde]
IL-8 secretion [1]: dramatic decrease in IL-8 secretion
MPO (myeloperoxidase (MPO); HCC (DEN/2-AAF) rats + safranal high dose 50 mg/kg b.wt. oral, 12 weeks): 31.54 ± 2.4 milliunit/mg protein
MPO (myeloperoxidase (MPO); HCC (DEN/2-AAF) rats + safranal low dose 25 mg/kg b.wt. oral, 12 weeks): 27.47 ± 1.77 milliunit/mg protein
MPO (myeloperoxidase (MPO); safranal alone 50 mg/kg b.wt. oral, no DEN (group 2)): 32.61 ± 1.61 milliunit/mg protein
